In ChEMBL document CHEMBL5058646 (2022):

Molecular target: B-cell lymphoma 6 protein (Homo sapiens, UniProt P41182)
Test: TR-FRET; call rule not given here

## C[C@@H]1CN(c2nccc(Nc3ccc4c(c3)n(CCC(C)(C)O)c(=O)n4C)n2)C[C@H](C)C1(F)F
  IC50: 21 µM (not active)
